Data taken from patent publication US12564585B2, “Nutraceuticals having sustained release for improved bioavailability and method of production” (BioActives LLC, priority 2013, dated 2026).

Key:
[1] = PQQ-SR dissolution test (SGF then SIF); assay type: physicochemical; conditions: SGF 2 hr then SIF pH 6.5, 20 mg PQQ
Experimental: The in vitro dissolution study was performed using the Varian 7020 dissolution tester with the basket configuration at 37° C., 100 rpm. The samples equivalent to 20 mg PQQ filled in hard gelatin capsules were used for the study. The capsules were introduced into 750 ml of 0.1N HCl (simulated gastric fluid without enzymes, SGF) maintained at 37° C. At the end of 1 and 2 hrs, 2 ml of the sample was withdrawn and filtered through 10μ-syringe filter. The removed volume was replaced each time with fresh medium. PQQ was determined by spectrophotometry at 330 nm.
At the end of 2 hr, the pH of the medium was adjusted to 6.5 (Simulated intestinal fluid without enzymes, SIF) with an appropriate amount of 0.2M tribasic sodium phosphate solution equilibrated to 37° C., Polysorbate 80 at 0.25% (simulating fed state) dissolved in water was added to the medium. Aliquots were withdrawn at 4, 6, 9, and 12 hrs for analysis as described before and the removed volume was replaced with fresh medium each time.

[2] = human studies, background; cited from earlier work
[3] = PQQ-SR bioavailability pilot human uptake study; assay type: in vivo; conditions: free plasma PQQ
Experimental: PQQ-SR formulation and PQQ powder equivalent to 40 mg PQQ were used for the study. The samples were provided in hard gelatin capsules. The crossover study was done using two healthy subjects. On the day of the study, 7 ml of blood was collected in EDTA tubes to permit establishment of baseline value. PQQ-SR capsules were administered after breakfast and blood samples were drawn as before at 1, 2, 4, 7, and 9 hrs post-dose. The samples were stored on ice protected from light and the plasma was separated by centrifugation within 1 hr of collection and stored at −70° C. until analysis. After a 7-day washout period the protocol was repeated for the control PQQ powder capsules.
Plasma PQQ was extracted using n-butanol and HCl followed by SepPak C-18 clean up of the extract as described by Suzuki et al. (Extractions of pyrroloquinoline quinone from crude biological samples, Suzuki, O., et al., Life Sci., 47: 2135-41, 1990). PQQ was estimated by using the enzymatic method as described by Geiger and Gorisch (Enzymatic determination of pyrroloquinoline quinone using crude membranes from E. coli, Geiger, O. and Gorisch, H., Anal Biochem., 164: 418-23, 1987). The method measures only the free PQQ in the plasma.

[4] = Curcumin-SR dissolution test (SGF then SIF); assay type: physicochemical; conditions: simulated gastric and intestinal fluids
Experimental: The in vitro dissolution study was performed using the Varian 7020 dissolution tester with the basket configuration at 37° C., 100 rpm. The samples equivalent to 25 mg Curcumin filled in hard gelatin capsules were used for the study. The capsules were introduced into 750 ml of 0.1N HCl (simulated gastric fluid without enzymes, SGF) maintained at 37° C. At the end of 1 and 2 hrs, 3 ml of the sample was withdrawn and filtered through 10μ-syringe filter. The removed volume was replaced each time with fresh medium. At the end of 2 hr, the pH of the medium was adjusted to 6.5 (simulated intestinal fluid without enzymes, SIF) with 195 ml of 0.2M tribasic sodium phosphate solution equilibrated to 37° C. Polysorbate 80 dissolved in 55 ml of water was added to a concentration of 0.25% to simulate intestinal fluid. Aliquots were withdrawn at 4, 6, 9, and 12 hrs for analysis, as described before, and the removed volume was replaced with fresh medium each time. The aliquots were diluted with methanol for the HPLC analysis of Curcumin. Curcumin was quantified using reverse-phase HPLC on a Phenomenex Luna column (150×4.6 mm, 5 μm) at room temperature. The samples were eluted using an isocratic mobile phase consisting of 5% acetic acid/45% and acetronitrile/55%. The flow rate was 1 ml/min and detection wavelength was 420 nm. Standard Curcumin from Chromadex was used for quantification. […]

[5] = Curcumin-SR bioavailability pilot human uptake study; assay type: in vivo; conditions: plasma Curcumin, 250 mg total Curcuminoids oral, 0-9 hr
Experimental: Curcumin-SR formulation and Curcumin powder equivalent to 250 mg total Curcuminoids were used for the study. The samples were provided in hard gelatin capsules. The crossover study was done using two healthy subjects who were not using curcumin in their food preparations or consuming Curcumin supplements. On the day of the study, 7 ml of blood was collected in EDTA tubes to permit establishment of baseline value. Curcumin-SR capsules were administered after breakfast and blood samples were drawn as before at 1, 2, 4, 7, and 9 hrs post-dose. The samples were stored on ice protected from light and the plasma was separated by centrifugation within 1 hr of collection and stored at −70° C. until analysis. After a 7-day washout period the protocol was repeated for the control Curcumin powder capsules.
Hydrolysis of Curcumin conjugates and extraction of Curcumin from the plasma were done based on the method described by Vareed et at. (Pharamcokinetics of curcumin conjugate metabolites in healthy human subjects, Cancer Epidemiol Biomarkers, 17: 1411-1417, 2008). One ml of the plasma was incubated with 2000 units of β-glucuronidase and 260 units sulfatase at 37° C. for 3.5 hrs. The samples were extracted three times with ethyl acetate/methanol (95:5) and the solvents were evaporated under nitrogen protected from light. […] Curcumin was quantified using reverse-phase HPLC as described above.

[6] = Resveratrol-SR bioavailability pilot human uptake study; assay type: in vivo; conditions: plasma free Resveratrol, 500 mg oral, 0-24 hr
Experimental: Resveratrol-SR formulation and 98% Resveratrol powder equivalent to 500 mg Resveratrol were used for the study. The samples were provided in hard gelatin capsules. The crossover study was done using two healthy subjects who were not consuming Resveratrol supplements. The subjects were asked not to consume Resveratrol containing foods, such as, peanuts grapes and wine, for 48 hours before the study. On the day of the study, 7 ml of blood was collected in EDTA tubes to permit establishment of baseline value. Resveratrol-SR capsules were administered after breakfast and blood samples were drawn as before at 1, 2, 4, 7, 9, and 24 his post-dose. The samples were stored on ice protected from light and the plasma was separated by centrifugation within 1 hr of collection and stored at −70° C. until analysis. After a 7-day washout period the protocol was repeated for the control Resveratrol powder capsules. Plasma total Resveratrol (Resveratrol conjugates and free Resveratrol) and free Resveratrol were determined based on the method described by Meng et al. (Urinary and plasma levels of resveratrol and quercetin in humans, mice and rats after ingestion of pure compounds and grape juice, J. Agric. Food Chem., 52: 935-942, 2004). […] Resveratrol was quantified using reverse-phase HPLC as described above.

[7] = Resveratrol-SR dissolution test (SGF then SIF); assay type: physicochemical; conditions: sink conditions, SGF 2 hr then SIF pH 6.5, 25 mg Resveratrol
Experimental: The in vitro dissolution study was performed using the Varian 7020 dissolution tester with the basket configuration at 37° C., 100 rpm. The samples equivalent to 25 mg Resveratrol filled in hard gelatin capsules were used for the study. The capsules were introduced into 750 ml of 0.1N HCl (simulated gastric fluid without enzymes, SGF) maintained at 37° C. […] The removed volume was replaced each time with fresh medium. […] Polysorbate 80 dissolved in 55 ml of water was added to a concentration of 0.25% to simulate intestinal fluid. Aliquots were withdrawn at 4, 6, 9, and 12 hrs for analysis as described before and the removed volume was replaced with fresh medium each time. The aliquots were diluted with methanol for HPLC analysis. Resveratrol was quantified using reverse-phase HPLC on a Phenomenex Prodigy column (250×4.6 mm, 5 μm) at room temperature. The samples were eluted using an isocratic mobile phase consisting of 5% acetic acid/55% and methaniol/45%. The flow rate was 1 ml/min and detection wavelength was 306 nm. The retention time for Resveratrol was 7.5 min under these conditions. Standard Resveratrol from Sigma was used for calibration.

O=C(O)c1cc(C(=O)O)c2c(n1)C(=O)C(=O)c1cc(C(=O)O)[nH]c1-2 [control PQQ powder, Pyrroloquinoline quinone]
dose in solution by 4 hrs [1]: 100% | time after ingestion at which maximum plasma level was reached [2]: 2 h | time by which levels reached baseline [2]: ≤ 8 h | time by which plasma level reached near baseline [3]: ≤ 9 h | average area under the curve AUC0-9hr ([3]; 40 mg oral, 0-9 hr): 31.41 ng·h/mL | Tmax ([3]; human, 40 mg PQQ oral, two healthy subjects): 2 h

COc1cc(/C=C/C(=O)CC(=O)/C=C/c2ccc(O)c(OC)c2)ccc1O [Curcumin powder, Curcumin]
dissolution profile in words [4]: very little is micronized or released at the gastric pH | average area under the curve AUC0-9hr [5]: 47.78 ng·h/mL

Oc1ccc(/C=C/c2cc(O)cc(O)c2)cc1 [Resveratrol powder, 3,4′,5-trihydroxy-trans-stilbene]
average area under the curve AUC0-24hr for free Resveratrol [6]: 2290 ng·h/mL | dissolution of dose in 4 hours [7]: 100%
